Columns and labels:
Assay in all cases: KAM-matrix competition in K562 lysate;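 for 0.001 uM KAM: median log10 fold change of treatment over DMSO control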;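 for 0.01 uM KAM: median log10 fold change of treatment over DMSO control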;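 for 0.1 uM KAM: median log10 fold change of treatment over DMSO control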;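 for 1 uM KAM: median log10 fold change of treatment over DMSO control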;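 for 10 uM KAM: median log10 fold change of treatment over DMSO control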
Format in all cases: binding
CDK7 = target: T1, CDK7 (Homo sapiens, UniProt P50613)
T1 construct: endogenous in cells; host or cells: K562
T1 sequence (P50613 2-346 limits assumed): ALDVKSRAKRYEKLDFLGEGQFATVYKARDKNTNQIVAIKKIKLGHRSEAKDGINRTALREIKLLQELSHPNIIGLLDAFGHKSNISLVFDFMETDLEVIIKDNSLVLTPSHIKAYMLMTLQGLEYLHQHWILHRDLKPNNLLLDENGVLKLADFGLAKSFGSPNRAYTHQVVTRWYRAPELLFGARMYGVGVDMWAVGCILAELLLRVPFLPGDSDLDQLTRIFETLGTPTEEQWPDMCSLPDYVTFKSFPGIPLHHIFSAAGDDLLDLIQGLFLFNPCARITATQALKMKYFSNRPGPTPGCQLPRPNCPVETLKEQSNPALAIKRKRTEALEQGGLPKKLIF
T1 sequence (P51946 whole entry partner): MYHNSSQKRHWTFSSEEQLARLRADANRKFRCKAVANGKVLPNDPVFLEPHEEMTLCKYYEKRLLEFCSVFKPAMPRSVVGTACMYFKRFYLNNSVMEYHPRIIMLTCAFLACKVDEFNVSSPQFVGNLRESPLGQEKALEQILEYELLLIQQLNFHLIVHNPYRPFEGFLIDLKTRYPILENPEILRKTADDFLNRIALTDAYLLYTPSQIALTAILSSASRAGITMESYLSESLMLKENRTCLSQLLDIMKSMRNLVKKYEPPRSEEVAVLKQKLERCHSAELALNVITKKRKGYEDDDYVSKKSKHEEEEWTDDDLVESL
T1 sequence (P51948 whole entry partner): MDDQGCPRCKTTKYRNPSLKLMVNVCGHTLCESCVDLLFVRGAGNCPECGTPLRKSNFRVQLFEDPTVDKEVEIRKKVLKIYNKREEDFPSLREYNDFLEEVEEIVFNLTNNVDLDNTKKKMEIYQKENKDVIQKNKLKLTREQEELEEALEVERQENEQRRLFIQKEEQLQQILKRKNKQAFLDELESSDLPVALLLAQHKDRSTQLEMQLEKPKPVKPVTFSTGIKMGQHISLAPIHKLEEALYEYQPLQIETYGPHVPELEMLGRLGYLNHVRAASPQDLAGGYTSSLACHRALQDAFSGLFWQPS
Procedure: (§1) Supplement 12953_2017_125_MOESM1_ESM.zip/MS_Supp Info.xlsx, sheet "KAM" | column: 10 uM KAM; 1 uM KAM; 0.1 uM KAM; 0.01 uM KAM; 0.001 uM KAM; RB50

PRKACA = target: T2, PRKACA (Homo sapiens, UniProt P17612);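 for 0.001 uM KAM: median log10 fold change of treatment over DMSO control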;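 for 0.01 uM KAM: median log10 fold change of treatment over DMSO control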;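 for 0.1 uM KAM: median log10 fold change of treatment over DMSO control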;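 for 1 uM KAM: median log10 fold change of treatment over DMSO control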;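 for 10 uM KAM: median log10 fold change of treatment over DMSO control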
T2 construct: endogenous in cells; host or cells: K562 lysate
Procedure: as §1

STK17B = target: T3, STK17B (Homo sapiens, UniProt O94768)
T3 construct: endogenous in cells; host or cells: K562 cells (lysate)
T3 sequence (O94768 1-372): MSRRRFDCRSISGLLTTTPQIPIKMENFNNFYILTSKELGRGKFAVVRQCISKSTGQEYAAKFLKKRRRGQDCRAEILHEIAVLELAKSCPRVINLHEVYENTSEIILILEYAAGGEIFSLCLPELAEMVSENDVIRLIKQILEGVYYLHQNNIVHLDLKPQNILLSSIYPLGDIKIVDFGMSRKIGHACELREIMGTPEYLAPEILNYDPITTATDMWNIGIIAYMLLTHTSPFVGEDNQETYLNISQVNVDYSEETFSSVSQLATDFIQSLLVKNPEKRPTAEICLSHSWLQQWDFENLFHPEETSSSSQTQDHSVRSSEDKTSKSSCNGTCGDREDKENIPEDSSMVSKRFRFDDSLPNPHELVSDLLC
Procedure: as §1

PEAK1 = target: T4, PEAK1 (Homo sapiens, UniProt Q9H792);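 for 0.001 uM KAM: median log10 fold change of treatment over DMSO control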;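 for 0.01 uM KAM: median log10 fold change of treatment over DMSO control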;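 for 0.1 uM KAM: median log10 fold change of treatment over DMSO control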;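 for 1 uM KAM: median log10 fold change of treatment over DMSO control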;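 for 10 uM KAM: median log10 fold change of treatment over DMSO control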
T4 construct: endogenous in cells; host or cells: K562
T4 sequence (Q9H792 whole entry): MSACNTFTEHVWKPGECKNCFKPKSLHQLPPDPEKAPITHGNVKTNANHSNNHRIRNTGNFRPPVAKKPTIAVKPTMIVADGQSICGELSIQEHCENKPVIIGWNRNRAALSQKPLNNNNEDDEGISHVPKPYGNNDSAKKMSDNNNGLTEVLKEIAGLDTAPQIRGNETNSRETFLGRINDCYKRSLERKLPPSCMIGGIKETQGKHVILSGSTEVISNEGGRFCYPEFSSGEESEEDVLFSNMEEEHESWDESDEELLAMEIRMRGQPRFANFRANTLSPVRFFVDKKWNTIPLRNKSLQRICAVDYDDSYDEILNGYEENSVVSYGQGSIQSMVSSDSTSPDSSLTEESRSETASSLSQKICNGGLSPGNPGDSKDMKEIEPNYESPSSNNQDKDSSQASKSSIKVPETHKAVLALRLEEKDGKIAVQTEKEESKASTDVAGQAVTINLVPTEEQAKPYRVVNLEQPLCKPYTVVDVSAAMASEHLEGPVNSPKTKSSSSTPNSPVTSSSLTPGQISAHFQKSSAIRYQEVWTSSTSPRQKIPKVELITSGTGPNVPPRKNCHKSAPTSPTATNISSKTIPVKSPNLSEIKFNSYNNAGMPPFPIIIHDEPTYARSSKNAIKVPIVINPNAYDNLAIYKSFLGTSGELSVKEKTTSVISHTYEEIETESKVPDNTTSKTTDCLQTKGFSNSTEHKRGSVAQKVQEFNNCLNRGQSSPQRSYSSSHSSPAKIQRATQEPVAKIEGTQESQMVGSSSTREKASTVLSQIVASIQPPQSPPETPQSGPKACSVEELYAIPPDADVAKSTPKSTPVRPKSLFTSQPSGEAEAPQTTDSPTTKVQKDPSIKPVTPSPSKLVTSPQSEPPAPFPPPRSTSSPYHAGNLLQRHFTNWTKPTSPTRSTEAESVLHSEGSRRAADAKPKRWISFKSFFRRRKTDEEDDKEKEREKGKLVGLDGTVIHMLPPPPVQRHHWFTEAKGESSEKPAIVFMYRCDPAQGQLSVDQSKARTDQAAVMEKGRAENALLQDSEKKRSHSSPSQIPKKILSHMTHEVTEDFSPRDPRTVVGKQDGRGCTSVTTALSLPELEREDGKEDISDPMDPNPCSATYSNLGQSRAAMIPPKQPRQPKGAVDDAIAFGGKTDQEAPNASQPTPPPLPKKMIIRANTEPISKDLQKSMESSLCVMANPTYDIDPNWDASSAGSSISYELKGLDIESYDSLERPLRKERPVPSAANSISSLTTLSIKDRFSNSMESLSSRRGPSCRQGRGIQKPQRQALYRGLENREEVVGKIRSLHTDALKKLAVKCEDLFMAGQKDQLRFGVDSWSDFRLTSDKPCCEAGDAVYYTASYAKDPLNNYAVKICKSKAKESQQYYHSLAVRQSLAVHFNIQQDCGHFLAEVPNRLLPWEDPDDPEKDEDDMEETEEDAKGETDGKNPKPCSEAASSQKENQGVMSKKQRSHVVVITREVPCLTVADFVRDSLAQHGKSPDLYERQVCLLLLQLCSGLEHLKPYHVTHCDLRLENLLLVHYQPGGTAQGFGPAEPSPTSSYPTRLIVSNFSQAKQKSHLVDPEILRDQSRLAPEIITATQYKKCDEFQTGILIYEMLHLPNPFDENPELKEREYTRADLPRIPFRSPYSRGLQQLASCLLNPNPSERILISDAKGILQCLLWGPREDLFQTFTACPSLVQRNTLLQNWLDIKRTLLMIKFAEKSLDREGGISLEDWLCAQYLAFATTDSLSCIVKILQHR
Procedure: as §1

MAP3K9 = target: T5, MAP3K9 (Homo sapiens, UniProt P80192)
T5 construct: endogenous in cells; host or cells: K562
T5 sequence (P80192 whole entry): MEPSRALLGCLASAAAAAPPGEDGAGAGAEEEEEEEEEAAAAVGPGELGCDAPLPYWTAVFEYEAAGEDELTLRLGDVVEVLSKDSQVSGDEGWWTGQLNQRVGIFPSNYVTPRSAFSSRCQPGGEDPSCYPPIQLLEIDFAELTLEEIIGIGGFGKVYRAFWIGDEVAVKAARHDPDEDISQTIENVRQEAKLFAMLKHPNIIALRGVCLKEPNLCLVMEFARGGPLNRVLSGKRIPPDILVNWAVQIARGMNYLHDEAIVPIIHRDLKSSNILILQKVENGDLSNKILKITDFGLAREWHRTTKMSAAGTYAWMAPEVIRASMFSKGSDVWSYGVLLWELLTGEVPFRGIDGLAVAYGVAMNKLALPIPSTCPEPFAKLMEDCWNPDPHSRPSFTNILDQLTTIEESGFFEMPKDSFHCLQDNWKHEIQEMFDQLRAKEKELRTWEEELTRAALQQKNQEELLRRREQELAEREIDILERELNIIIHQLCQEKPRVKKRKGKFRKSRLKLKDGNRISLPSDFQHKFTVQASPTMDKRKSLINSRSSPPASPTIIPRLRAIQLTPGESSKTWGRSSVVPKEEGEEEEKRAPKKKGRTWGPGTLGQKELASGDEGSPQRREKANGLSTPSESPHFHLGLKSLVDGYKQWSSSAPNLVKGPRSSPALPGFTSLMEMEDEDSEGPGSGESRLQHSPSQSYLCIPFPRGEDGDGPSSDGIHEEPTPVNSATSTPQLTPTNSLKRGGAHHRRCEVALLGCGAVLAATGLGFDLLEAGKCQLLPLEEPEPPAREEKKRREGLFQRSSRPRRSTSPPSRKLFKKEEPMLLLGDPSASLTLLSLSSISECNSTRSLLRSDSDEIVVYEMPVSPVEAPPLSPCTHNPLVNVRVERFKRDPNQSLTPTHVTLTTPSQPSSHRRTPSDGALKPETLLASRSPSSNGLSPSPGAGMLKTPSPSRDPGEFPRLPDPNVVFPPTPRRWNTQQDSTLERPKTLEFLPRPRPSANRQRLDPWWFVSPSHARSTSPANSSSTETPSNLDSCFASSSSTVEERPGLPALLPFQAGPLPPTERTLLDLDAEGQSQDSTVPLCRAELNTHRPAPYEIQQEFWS
Procedure: as §1

VRK1 = target: T6, VRK1 (Homo sapiens, UniProt Q99986);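 for 0.001 uM KAM: median log10 fold change of treatment over DMSO control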;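 for 0.01 uM KAM: median log10 fold change of treatment over DMSO control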;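 for 0.1 uM KAM: median log10 fold change of treatment over DMSO control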;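 for 1 uM KAM: median log10 fold change of treatment over DMSO control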;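 for 10 uM KAM: median log10 fold change of treatment over DMSO control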
T6 construct: endogenous in cells; host or cells: K562
T6 sequence (Q99986 1-396): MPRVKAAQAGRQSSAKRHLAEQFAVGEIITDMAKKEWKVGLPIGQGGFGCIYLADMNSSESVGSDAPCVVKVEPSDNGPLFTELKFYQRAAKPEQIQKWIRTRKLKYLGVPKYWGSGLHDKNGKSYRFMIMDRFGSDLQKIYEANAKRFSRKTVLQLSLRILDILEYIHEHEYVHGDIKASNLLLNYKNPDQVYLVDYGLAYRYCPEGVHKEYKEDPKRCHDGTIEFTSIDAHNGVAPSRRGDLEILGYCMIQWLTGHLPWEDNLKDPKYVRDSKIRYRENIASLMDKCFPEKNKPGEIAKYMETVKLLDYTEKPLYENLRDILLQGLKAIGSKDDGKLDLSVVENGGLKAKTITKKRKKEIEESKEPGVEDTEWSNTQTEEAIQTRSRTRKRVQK
Procedure: as §1

EPHB6 = target: T7, EPHB6 (Homo sapiens, UniProt O15197)
T7 construct: endogenous in cells; host or cells: K562
T7 sequence (O15197 32-1021): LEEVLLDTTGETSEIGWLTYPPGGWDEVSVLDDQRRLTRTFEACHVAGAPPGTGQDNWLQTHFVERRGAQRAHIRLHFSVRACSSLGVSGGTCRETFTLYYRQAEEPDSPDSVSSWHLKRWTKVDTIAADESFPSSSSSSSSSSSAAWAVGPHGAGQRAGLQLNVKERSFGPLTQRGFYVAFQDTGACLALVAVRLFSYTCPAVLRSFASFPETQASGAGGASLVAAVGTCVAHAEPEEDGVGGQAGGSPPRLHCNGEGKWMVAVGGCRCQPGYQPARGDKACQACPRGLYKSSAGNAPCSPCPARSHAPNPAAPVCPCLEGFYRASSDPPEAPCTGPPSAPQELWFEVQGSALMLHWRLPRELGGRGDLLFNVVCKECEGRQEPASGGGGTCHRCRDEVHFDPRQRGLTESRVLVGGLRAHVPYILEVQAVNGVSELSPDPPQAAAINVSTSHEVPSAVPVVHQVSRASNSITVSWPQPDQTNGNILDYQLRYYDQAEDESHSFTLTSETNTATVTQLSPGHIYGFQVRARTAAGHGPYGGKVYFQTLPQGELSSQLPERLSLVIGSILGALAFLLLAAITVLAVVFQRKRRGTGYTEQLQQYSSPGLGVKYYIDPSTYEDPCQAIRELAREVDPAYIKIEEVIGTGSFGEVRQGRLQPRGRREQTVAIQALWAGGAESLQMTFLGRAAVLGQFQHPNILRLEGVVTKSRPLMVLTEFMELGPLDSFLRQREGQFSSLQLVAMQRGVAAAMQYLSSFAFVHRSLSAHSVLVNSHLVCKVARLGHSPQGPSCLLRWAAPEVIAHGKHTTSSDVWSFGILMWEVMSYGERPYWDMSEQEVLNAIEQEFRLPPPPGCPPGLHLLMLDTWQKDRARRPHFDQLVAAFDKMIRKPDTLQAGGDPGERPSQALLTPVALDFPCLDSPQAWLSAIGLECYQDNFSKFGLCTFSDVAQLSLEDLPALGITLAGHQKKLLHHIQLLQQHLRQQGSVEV
Procedure: as §1

[1] = read-out: RB50 (the source's name)
[2] = KAM 0.001-10 uM, read-out: RB50 (the source's name)

SMILES: N#CCc1ccc(Nc2nc(NCCCN)cc(Nc3cc(C4CC4)[nH]n3)n2)cc1 [KAM]
- median Log10 fold change (CDK7; 0.001 uM KAM): -0.0273
- median Log10 fold change (CDK7; 0.01 uM KAM): -0.01722
- median Log10 fold change (CDK7; 0.1 uM KAM): -0.1187
- median Log10 fold change (CDK7; 1 uM KAM): -0.275
- median Log10 fold change (CDK7; 10 uM KAM): -0.3928
- IC50 (CDK7; [1]): 1660 nM
- IC50 (PRKACA; [2]): > 10000 nM
- 0.001 uM KAM (PRKACA; relative to 0 uM KAM = 0): 0.01517
- 0.01 uM KAM (PRKACA; relative to 0 uM KAM = 0): -0.007672
- 0.1 uM KAM (PRKACA; relative to 0 uM KAM = 0): 0.08573
- 1 uM KAM (PRKACA; relative to 0 uM KAM = 0): 0.0122
- 10 uM KAM (PRKACA; relative to 0 uM KAM = 0): 0.04616
- median Log10 fold change (STK17B; 0.001 uM KAM): 0.02659
- median Log10 fold change (STK17B; 0.01 uM KAM): 0.008023
- median Log10 fold change (STK17B; 0.1 uM KAM): -0.1097
- median Log10 fold change (STK17B; 1 uM KAM): -0.3588
- median Log10 fold change (STK17B; 10 uM KAM): -0.5971
- IC50 (STK17B; [1]): 799 nM
- IC50 (PEAK1; [2]): > 10000 nM
- 0.001 uM KAM (PEAK1; relative to 0 uM KAM = 0): 0.04051
- 0.01 uM KAM (PEAK1; relative to 0 uM KAM = 0): 0.04298
- 0.1 uM KAM (PEAK1; relative to 0 uM KAM = 0): 0.03477
- 1 uM KAM (PEAK1; relative to 0 uM KAM = 0): 0.09337
- 10 uM KAM (PEAK1; relative to 0 uM KAM = 0): 0.04238
- median Log10 fold change (MAP3K9; 0.001 uM KAM): -0.03702
- median Log10 fold change (MAP3K9; 0.01 uM KAM): 0.03625
- median Log10 fold change (MAP3K9; 0.1 uM KAM): -0.05744
- median Log10 fold change (MAP3K9; 1 uM KAM): -0.2576
- median Log10 fold change (MAP3K9; 10 uM KAM): -0.4734
- IC50 (MAP3K9; [1]): 1800 nM
- IC50 (VRK1; [2]): > 10000 nM
- 0.001 uM KAM (VRK1; relative to 0 uM KAM = 0): 0.05319
- 0.01 uM KAM (VRK1; relative to 0 uM KAM = 0): 0.02372
- 0.1 uM KAM (VRK1; relative to 0 uM KAM = 0): 0.08305
- 1 uM KAM (VRK1; relative to 0 uM KAM = 0): 0.1248
- 10 uM KAM (VRK1; relative to 0 uM KAM = 0): 0.03089
- median Log10 fold change (EPHB6; 0.001 uM KAM): -0.01655
- median Log10 fold change (EPHB6; 0.01 uM KAM): -0.02112
- median Log10 fold change (EPHB6; 0.1 uM KAM): -0.1129
- median Log10 fold change (EPHB6; 1 uM KAM): -0.2258
- median Log10 fold change (EPHB6; 10 uM KAM): -0.3985
- IC50 (EPHB6; [1]): 2510 nM

Source: publication PMC5513037, “Examining the influence of specificity ligands and ATP-competitive ligands on the overall effectiveness of bivalent kinase inhibitors” (Proteome Science, 2017)
